Test [1] concerns the target T1, Serine/threonine-protein kinase TAO2 (Homo sapiens) (UniProt Q9UL54).
T1 sequence (whole entry): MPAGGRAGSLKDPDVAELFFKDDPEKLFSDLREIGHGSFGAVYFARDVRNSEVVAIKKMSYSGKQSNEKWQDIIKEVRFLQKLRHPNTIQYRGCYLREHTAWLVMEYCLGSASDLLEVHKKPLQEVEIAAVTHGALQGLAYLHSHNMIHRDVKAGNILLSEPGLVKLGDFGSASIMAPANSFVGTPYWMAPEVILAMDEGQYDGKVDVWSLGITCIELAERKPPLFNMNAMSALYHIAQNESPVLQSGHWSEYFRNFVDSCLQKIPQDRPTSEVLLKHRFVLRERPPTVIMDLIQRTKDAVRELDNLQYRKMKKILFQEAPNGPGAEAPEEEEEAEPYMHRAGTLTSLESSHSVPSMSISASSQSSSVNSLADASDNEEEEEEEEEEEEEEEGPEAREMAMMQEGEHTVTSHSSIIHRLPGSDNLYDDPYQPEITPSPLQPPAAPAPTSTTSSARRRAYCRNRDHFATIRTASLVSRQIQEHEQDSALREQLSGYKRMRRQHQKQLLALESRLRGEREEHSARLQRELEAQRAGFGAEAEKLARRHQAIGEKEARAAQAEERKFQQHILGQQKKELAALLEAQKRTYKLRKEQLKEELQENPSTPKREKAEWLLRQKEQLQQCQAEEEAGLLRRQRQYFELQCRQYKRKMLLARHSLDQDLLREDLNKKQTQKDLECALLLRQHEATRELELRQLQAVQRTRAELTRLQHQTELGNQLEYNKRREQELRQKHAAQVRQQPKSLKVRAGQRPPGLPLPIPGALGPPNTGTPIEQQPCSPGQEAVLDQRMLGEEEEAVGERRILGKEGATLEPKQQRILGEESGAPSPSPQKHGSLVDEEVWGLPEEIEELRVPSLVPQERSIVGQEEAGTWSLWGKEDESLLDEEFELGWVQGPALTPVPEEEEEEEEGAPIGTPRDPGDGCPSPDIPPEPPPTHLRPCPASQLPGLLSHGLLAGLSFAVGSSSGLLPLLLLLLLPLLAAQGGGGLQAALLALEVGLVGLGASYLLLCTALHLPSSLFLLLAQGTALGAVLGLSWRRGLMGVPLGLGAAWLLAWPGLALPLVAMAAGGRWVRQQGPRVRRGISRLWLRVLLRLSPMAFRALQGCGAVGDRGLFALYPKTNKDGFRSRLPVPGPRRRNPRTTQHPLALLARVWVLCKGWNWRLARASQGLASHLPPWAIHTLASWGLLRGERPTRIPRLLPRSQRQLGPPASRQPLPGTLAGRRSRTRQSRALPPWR
Put plainly: Selectivity interaction (Kinase panel (Z-LYTE Assay)) EUB0001632a TAOK2. As to conditions: at 10 µM.

Test [2] addresses T2, Mitogen-activated protein kinase kinase kinase kinase 2 (Homo sapiens) (UniProt Q12851).
T2 sequence (whole entry): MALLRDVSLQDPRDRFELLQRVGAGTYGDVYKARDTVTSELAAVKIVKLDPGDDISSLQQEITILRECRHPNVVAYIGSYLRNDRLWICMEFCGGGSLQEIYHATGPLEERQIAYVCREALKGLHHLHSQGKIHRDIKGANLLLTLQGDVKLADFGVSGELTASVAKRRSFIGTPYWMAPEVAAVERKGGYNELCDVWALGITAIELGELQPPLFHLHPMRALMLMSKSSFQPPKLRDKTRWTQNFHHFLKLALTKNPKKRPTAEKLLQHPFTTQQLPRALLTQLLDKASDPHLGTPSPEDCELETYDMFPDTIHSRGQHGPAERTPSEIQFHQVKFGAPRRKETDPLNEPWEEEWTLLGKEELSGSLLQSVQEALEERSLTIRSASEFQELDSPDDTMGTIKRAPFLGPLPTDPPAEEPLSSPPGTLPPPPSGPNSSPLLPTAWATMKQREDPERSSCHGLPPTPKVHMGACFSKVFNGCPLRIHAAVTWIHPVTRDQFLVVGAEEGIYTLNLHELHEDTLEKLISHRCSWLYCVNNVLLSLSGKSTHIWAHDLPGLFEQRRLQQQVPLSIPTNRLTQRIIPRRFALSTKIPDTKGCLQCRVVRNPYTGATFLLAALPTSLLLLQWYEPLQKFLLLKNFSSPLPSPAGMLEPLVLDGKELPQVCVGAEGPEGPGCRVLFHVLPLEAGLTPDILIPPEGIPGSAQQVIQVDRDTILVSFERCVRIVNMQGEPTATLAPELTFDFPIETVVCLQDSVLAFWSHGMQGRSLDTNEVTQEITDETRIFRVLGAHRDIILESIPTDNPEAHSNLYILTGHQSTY
Nature of the test: Selectivity interaction (KinomeScan (DiscoverX)) EUB0000229b MAP4K2. As to conditions: at 10 µM.

Test [3] deals with Angiopoietin-1 receptor (Homo sapiens) (UniProt Q02763). Put plainly: Selectivity interaction (Kinase panel (literature)) EUB0001199aCl TEK. As to conditions: at 1 µM.
The target in test [4] is T3, Calcium/calmodulin-dependent protein kinase type IV (Homo sapiens) (UniProt Q16566).
T3 sequence (whole entry): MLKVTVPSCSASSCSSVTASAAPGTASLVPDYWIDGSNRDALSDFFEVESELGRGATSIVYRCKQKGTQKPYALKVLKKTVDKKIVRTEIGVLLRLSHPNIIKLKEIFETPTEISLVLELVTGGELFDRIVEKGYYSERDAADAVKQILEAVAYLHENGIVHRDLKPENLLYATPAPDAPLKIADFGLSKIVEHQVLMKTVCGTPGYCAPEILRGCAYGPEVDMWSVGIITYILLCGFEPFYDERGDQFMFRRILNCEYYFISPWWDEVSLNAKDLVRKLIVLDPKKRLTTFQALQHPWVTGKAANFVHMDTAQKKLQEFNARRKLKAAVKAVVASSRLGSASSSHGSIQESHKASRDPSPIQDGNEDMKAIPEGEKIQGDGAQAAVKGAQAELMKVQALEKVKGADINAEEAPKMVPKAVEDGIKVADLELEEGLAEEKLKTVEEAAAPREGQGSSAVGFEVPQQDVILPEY
Put plainly: Selectivity interaction (Kinase screening (Upstate/Millipore)) EUB0000604a CAMK4.

Test [5] deals with Hepatocyte growth factor receptor (Homo sapiens, UniProt P08581). As to conditions: at 10 µM.
Hepatocyte growth factor receptor, sequence (P08581 whole entry): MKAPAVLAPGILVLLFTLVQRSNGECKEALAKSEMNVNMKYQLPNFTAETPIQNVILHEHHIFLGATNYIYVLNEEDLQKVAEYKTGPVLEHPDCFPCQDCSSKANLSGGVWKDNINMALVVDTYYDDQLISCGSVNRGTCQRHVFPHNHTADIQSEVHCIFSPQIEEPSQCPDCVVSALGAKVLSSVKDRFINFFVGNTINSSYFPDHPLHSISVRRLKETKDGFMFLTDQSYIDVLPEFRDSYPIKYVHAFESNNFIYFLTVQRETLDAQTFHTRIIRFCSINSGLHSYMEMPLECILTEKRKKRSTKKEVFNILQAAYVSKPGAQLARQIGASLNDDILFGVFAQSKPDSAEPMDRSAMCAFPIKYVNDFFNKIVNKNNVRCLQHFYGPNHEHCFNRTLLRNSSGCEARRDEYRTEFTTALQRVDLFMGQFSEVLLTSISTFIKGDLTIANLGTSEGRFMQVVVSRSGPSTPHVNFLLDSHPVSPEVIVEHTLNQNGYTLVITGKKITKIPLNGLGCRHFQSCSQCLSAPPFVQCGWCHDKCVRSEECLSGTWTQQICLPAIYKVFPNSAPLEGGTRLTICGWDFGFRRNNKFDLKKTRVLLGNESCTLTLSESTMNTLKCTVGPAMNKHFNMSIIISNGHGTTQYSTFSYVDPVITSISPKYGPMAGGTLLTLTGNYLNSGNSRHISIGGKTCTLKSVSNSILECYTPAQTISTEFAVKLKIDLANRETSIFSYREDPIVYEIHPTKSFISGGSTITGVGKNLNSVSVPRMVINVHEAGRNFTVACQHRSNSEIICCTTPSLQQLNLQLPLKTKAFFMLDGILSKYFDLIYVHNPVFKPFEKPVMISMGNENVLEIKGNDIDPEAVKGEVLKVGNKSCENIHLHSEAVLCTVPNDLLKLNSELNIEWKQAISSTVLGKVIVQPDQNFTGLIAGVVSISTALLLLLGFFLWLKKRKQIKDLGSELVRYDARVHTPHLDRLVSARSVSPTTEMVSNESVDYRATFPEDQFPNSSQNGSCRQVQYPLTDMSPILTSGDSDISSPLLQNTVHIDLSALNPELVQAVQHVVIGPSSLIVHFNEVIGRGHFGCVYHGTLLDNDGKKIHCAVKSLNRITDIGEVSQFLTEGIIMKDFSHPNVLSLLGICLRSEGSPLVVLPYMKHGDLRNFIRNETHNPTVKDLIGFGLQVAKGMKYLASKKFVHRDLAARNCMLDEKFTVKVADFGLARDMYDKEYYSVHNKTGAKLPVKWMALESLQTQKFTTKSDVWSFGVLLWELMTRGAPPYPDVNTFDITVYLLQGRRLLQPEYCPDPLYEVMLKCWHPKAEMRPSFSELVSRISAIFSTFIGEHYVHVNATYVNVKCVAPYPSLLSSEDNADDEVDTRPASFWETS

Angiopoietin-1 receptor (Homo sapiens), sequence (Q02763 whole entry): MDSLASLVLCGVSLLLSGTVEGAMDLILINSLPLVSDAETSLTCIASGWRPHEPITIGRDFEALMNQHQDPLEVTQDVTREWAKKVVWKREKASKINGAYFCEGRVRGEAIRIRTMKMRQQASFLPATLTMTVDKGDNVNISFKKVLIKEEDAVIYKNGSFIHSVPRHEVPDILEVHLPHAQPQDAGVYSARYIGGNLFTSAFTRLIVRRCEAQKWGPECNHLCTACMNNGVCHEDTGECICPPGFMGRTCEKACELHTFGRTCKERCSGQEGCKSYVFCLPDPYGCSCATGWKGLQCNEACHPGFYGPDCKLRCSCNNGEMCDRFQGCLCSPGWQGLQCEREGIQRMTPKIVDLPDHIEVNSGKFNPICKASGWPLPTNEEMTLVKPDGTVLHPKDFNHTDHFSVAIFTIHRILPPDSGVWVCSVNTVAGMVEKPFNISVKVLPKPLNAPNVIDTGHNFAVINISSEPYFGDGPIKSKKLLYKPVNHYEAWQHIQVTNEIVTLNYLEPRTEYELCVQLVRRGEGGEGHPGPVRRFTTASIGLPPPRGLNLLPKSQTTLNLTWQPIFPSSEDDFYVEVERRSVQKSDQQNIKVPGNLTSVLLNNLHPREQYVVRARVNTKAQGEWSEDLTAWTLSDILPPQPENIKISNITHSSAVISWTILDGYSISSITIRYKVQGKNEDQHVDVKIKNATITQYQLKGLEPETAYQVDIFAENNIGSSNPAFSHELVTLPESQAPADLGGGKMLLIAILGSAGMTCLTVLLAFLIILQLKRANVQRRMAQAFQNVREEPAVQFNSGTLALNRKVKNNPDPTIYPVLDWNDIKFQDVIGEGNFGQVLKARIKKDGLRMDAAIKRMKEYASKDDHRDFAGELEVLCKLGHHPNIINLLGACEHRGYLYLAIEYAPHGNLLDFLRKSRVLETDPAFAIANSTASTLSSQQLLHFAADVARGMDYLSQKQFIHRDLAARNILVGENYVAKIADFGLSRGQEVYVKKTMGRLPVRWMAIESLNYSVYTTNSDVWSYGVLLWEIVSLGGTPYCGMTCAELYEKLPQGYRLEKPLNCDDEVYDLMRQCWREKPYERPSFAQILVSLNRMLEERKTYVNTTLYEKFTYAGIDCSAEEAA

In test [1], `Cn1cc(-n2cnc3c(NCc4nc5cc(Cl)c(Cl)cc5[nH]4)nc(N4CCOCC4)nc32)cn1` returned a % of control of 41.6%. On to `COc1cc(N(C)c2ccnc3ccc(C(F)(F)F)cc23)cc(OC)c1OC`, for which, in test [2], the % binding amounted to 65%.

Turning to `CN1Cc2nccc(-c3cn(C)nc3-c3ccc(F)cc3)c2C1=O`, the % of inhibition in test [3] came to 1%.

With `Cc1cnc(Nc2ccc(F)cc2Cl)nc1-c1c[nH]c(C(=O)N[C@H](CO)c2cccc(Cl)c2)c1`, the % of inhibition in test [4] turned out to be 0%.

In the case of `COCC(=O)NC/C=C/c1ccc2ncnc(Nc3ccc(Oc4ccc(C)nc4)c(C)c3)c2c1` [CP-724714], in test [5], the % of control came to 74%.

The record behind these values is ChEMBL document CHEMBL5465560, “Selectivity Literature for EUbOPEN Chemogenomic Library” (2024).
